Results reported in paper PMC11400957 (The Journal of Biological Chemistry, 2024).

Target: IpaD^WT (full-length) (Shigella flexneri, UniProt P18013)
Experiment: CD thermal unfolding at […] nm
Type: binding
Details: 1 mM DOC, PBS pH 7.4, 0.5 mg/ml protein; absolute Tm with ligand, not a shift; nonspecific detergent effect not excluded

Chain of IpaD^WT (full-length) (P18013 whole entry): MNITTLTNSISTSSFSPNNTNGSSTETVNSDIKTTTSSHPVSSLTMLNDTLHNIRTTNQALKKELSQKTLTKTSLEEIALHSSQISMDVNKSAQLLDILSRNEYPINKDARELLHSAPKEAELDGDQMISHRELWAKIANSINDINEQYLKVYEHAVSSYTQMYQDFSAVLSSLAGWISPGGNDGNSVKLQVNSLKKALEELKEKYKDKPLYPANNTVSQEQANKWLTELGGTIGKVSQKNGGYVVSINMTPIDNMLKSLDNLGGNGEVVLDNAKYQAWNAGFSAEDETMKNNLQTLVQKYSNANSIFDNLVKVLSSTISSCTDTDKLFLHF

C[C@H](CCC(=O)O)[C@H]1CC[C@H]2[C@@H]3CC[C@@H]4C[C@H](O)CC[C@]4(C)[C@H]3C[C@H](O)[C@]12C [deoxycholate]
Tm ^b (°C ± SD) / +DOC: 77 ± 1 °C
